Test results reported in US4263283A, “Method for prophylaxis and/or treatment of sickle cell disease” (Ferring Pharmaceuticals, Inc., priority 1980, dated 1981).

Tests used:
[1] = system: sickle cell disease
Text: The patient was a person with sickle cell disease characterized by diffuse pain involving the spine, long bones and abdomen; an elevated serum bilirubin and leukocytosis (the former indicating at least temporary liver damage due to the disease); a reticulocyte count of about 15% (indicating formation of new red blood cells) and a hematocrit of 24-30% (below the normal level of 43-45%). Prior treatment included i.v. hydration, transfusion with packed red blood cells and i.v. narcotics to manage the pain.
Because of the increasing frequency and severity of sickling crises, they were treated with desmopressin to induce a state of chronic hypo-osmolalityof body fluids by combination with increasd oral fluid administration.

[2] = in vivo; cited from earlier work
[3] = desmopressin 40 mcg intranasally every 6 hours + hydrochlorothiazide 100 mg daily, fluid intake 4.3±0.15 l/day

With `NC(=O)CC[C@@H]1NC(=O)[C@H](Cc2ccccc2)NC(=O)[C@H](Cc2ccc(O)cc2)NC(=O)CCSSC[C@@H](C(=O)N2CCC[C@H]2C(=O)N[C@H](CCCN=C(N)N)C(=O)NCC(N)=O)NC(=O)[C@H](CC(N)=O)NC1=O` [desmopressin, 1-deamino-8-D-arginine vasopressin] the “pain and jaundice after regimen re-instated” value ([1]; after crisis signs on withdrawal) was “pain and jaundice abated”, the “period free of any signs or symptoms of sickle cell crisis” value ([1]; after re-instatement of the regimen) was 6 months and the “serum Na after regimen re-instated” value ([1]; decreased from 142 mM after re-instatement of desmopressin regimen) was 127 mM. The “serum Na level at plateau” value [1, 3] was 125 mM, the “urine osmolality at plateau” value [1, 3] was 344±13 m Osm/kg and the “time free of any signs of crisis” value ([1]; first period on the regimen) was 54 days. For the same compound, the “untoward side-effects of the induced hyponatremia (nausea, cramps, disturbances in central nervous function)” value ([1]; human, in vivo) was “has not been associated with untoward side-effects” and the “vascular or non-vascular smooth muscle side effects” value [2] was “devoid of vascular or non-vascular smooth muscle side effects”.
With `NS(=O)(=O)c1cc2c(cc1Cl)NCNS2(=O)=O` [Hydrochlorothiazide] the “effect on attainment of hyponatremic state” value ([1]; 100 mg daily, added to desmopressin and fluid intake of 4-5 l. daily) was “facilitated the attainment of a hyponatremic state”.
